The subject of this test is hearts from normoxic rabbits. As to the kind of experiment: Mechanism studies: inhibitors/blockers perfused alone, then with erythropoietin, before global ischemia. Also on record: species or system New Zealand White rabbit. The following applies: for effect of protein kinase inhibitor on the cardioprotective effect of erythropoietin: inhibitor 15 min alone, then 15 min with erythropoietin 1.0 U/ml prior to ischemia. How it is done: Resistance to myocardial ischemia. Hearts from infant rabbits were perfused with bicarbonate buffer, and biventricular function was monitored continuously throughout each experiment as described in Rafiee et al., Circulation 106:239-45 (2002). For concentration response studies, hearts were then perfused with erythropoietin (0.5-10.0 U/ml) for 15 minutes prior to 30 minutes ischemia and 35 minutes reperfusion. For mechanism studies with protein kinase inhibitors, potassium channel blockers or nitric oxide synthase inhibitors, hearts were perfused with drugs for 15 minutes alone followed by 15 minutes in combination with erythropoietin prior to ischemia. Hearts perfused with protein kinase inhibitors or potassium channel blockers alone in the absence of erythropoietin for 30 minutes prior to ischemia served as untreated controls for these studies. Recovery of post-ischemic left and right ventricular developed pressure was expressed as a percentage of its pre-drug, pre-ischemic value.
Hearts from normoxic rabbits were perfused with protein kinase inhibitors alone for 15 minutes and then combined with erythropoietin for a further 15 minute period prior to ischemia.
Hearts were perfused with KATP channel blockers alone for 15 minutes and then in combination with erythropoietin (1.0 U/ml) for another 15-minute period prior to ischemia.
Hearts were perfused with Paxilline (1 μM), a blocker of the KCa channel, alone for 15 minutes and then in combination with erythropoietin (1.0 U/ml) for another 15-minute period prior to ischemia.
Hearts from normoxic rabbits were perfused with nitric oxide synthase inhibitors combined with erythropoietin (1.0 U/ml) for 15 minutes prior to ischemia.

Each structure is given as a SMILES string. “Also recorded” adds a separate entry of the source.

With `COc1ccc(Cl)cc1C(=O)NCCc1ccc(S(=O)(=O)NC(=O)NC2CCCCC2)cc1` [Glibenclamide], the “effect on the cardioprotective effect of erythropoietin” value (from here on “effect on the cardioprotective effect”) is given as “completely abolished” (glibenclamide 3 μM, 15 min alone then 15 min with erythropoietin 1.0 U/ml) and “abolished; also recorded: completely prevented” (glibenclamide 3 μM, 15 min alone then 15 min with erythropoietin 1.0 U/ml, listed as glibenclamide).

In the case of `C[S+]([O-])c1ccc(-c2nc(-c3ccncc3)c(-c3ccc(F)cc3)[nH]2)cc1` (centres unmarked) [SB203580], the “effect of protein kinase inhibitor on the cardioprotective effect of erythropoietin” value is given as “abolished”. Same read-out and setting: the value for `COc1ccc2c(c[n+](C)c3c4cc5c(cc4ccc23)OCO5)c1OC` [chelerythrine] was “abolished”. With `CCCCCC(O)CCCC(=O)O` (centres unmarked) [5-hydroxydecanoate], the “effect on the cardioprotective effect” value is “partially” (5-hydroxydecanoate 300 μM, 15 min alone then 15 min with erythropoietin 1.0 U/ml) and “abolished; also recorded: only partially prevented” (5-hydroxydecanoate 300 μM, 15 min alone then 15 min with erythropoietin 1.0 U/ml, listed as 5-HD).

As for `CC(C)(O)[C@H]1O[C@H]2CC[C@@]3(C)[C@@](O)(CC[C@H]4Cc5c([nH]c6ccccc56)[C@@]43C)C2=CC1=O` [Paxilline], under “Paxilline 1 μM alone, no erythropoietin”, the “effect on untreated hearts” value is recorded as “no effect”. With `COC(=O)[C@@H](N)CCCNC(=N)N[N+](=O)[O-]` [L-NAME], for the setting “L-NAME 200 μM combined with erythropoietin 1.0 U/ml for 15 minutes”, the “effect on the cardioprotective effect” value is recorded as “did not block”. Take `CNC(=S)NS(=O)(=O)c1cc(CCNC(=O)c2cc(Cl)ccc2OC)ccc1OC` [HMR 1098]: the “effect on the cardioprotective effect” value (HMR 1098 30 μM, 15 min alone then 15 min with erythropoietin 1.0 U/ml) is “abolished; also recorded: completely prevented; also recorded: completely blocked”. In the case of `COc1cccc(-c2cc(=O)c3ccccc3o2)c1N` [PD98059], the “effect of protein kinase inhibitor on the cardioprotective effect of erythropoietin” value was “abolished”. With `CNC(=N)NCCC[C@H](N)C(=O)O` [L-NMA], the “effect on the cardioprotective effect” value (L-NMA 100 μM combined with erythropoietin 1.0 U/ml for 15 minutes) was “did not block”.
